Test results from patent US8020343B2, “Enhanced shelf life and on seed stabilization of liquid bacterium inoculants” (Becker Underwood Inc., priority 2004, dated 2011).

Key:
Rhizobium leguminosarum = assay: Sugar/sugar alcohol study: bacteria counts on pea seeds; format: cell-based; settings: 15° C., sorbitol vs sucrose vs trehalose
Method: Partially desiccated inoculant products were prepared by first growing Rhizobium leguminosarum in a Rhizobium leguminosarum bv. viceae culture medium. Two different culture mediums were used, 1×R1 and 1.5×R1, which are pea and lentil fermentation medium. The 1.5×R1 has 50% more media components than 1×R1. After 3 days culture growth, a sugar or a sugar alcohol was aseptically added to the culture. The amount of sugar or sugar alcohol added to the culture is shown in final concentration (weight/volume) in Table 9 below. The culture was then allowed a 2 day conditioning phase during which the culture continued to grow thereby creating the partially desiccated inoculant product. The partially desiccated inoculant product was then applied to pea seeds at a rate of 3.1 L inoculant product/1136 kg seed. The seeds were then mixed in a bag by shaking to evenly distribute the inoculant product on the seeds. The seeds were then stored at 15° C.
The bacteria counts were performed in a similar manner as the previous examples. That is, 50 seeds were put in 100 ml of phosphate buffer in a dilution bottle. The bottle was shaken for 5 minutes. 10 fold serial dilutions were made and 0.1 ml of proper dilution was spread onto nutrient medium plates. The viable bacteria cells on seed were calculated based on the colony numbers on the plates.

B. japonicum strain 532C = assay: Sorbitol versus trehalose: on-seed rhizobial viability on soybean seed; format: cell-based; settings: trehalose 30% w/v vs sorbitol 20% w/v; seeds at 18-20° C., time zero and 7 days, FIG. 13
Method: An experiment was run to determine whether sorbitol or trehalose is better suited for application to soybean seeds with B japonicum. The following steps were performed: • 1. B. japonicum strain 532C was grown for 5 days in 1.5×Bj2 (a soybean fermentation medium) at 30° C. and 165 rpm. • 2. Either sorbitol (20% w/v) or trehalose (30% w/v) was added to the culture, and the cultures were maintained for 5 days at 30° C., 165 rpm. • 3. 2.7 ml/kg of either sorbitol or trehalose amended culture was applied to soybean seed. Seeds were evenly coated. • 4. Seeds were stored at 18-20° C. • 5. On-seed rhizobial viability was monitored at time zero and after 7 days

Row | Compound | extension of on-seed shelf life of Rhizobium leguminosarum, ranking of sugars/sugar alcohols tested (Rhizobium leguminosarum) | suitability for application to B japonicum on soybean seeds (on-seed rhizobial viability) (B. japonicum strain 532C)
1 | OC[C@@H](O)[C@@H](O)[C@H](O)[C@@H](O)CO [sorbitol] | top performing | 
2 | OC[C@H]1O[C@H](O[C@H]2O[C@H](CO)[C@@H](O)[C@H](O)[C@H]2O)[C@H](O)[C@@H](O)[C@@H]1O [trehalose] |  | better suited than sorbitol
